Measured values reported in patent US11352350B2, “IRAK degraders and uses thereof” (Kymera Therapeutics, Inc., priority 2018, dated 2022).
Like-named read-outs stand apart in the source and are kept apart here.

Target: IRAK4 (Homo sapiens (Human), UniProt Q9NWZ3)
Experiment: IRAK4 MSD degradation in OCI-LY10
Format: cell-based
Description: Degradation of IRAK4 in OCI-LY10 was quantitatively measured using Meso Scale Discovery technology. […] Compounds were then added to the assay plates with a final top concentration of 1 to 10 μM in a 1:3 dilution series with total of 8 doses. The assay plates were then incubated for 4 to 24 hours at 37° C. under 5% CO2. […] To prepare MSD assay plates (Meso Scale Discovery Catalog number L15XA-3), the plates were coated with […] capture antibody (mouse Anti-IRAK4 antibody [2H9], ab119942) in PBS, at 40 μL/well. […] Cell lysates were then added to MSD assay plates and the plates were incubated at room temperature for 1 hour. The plates were then washed 3 times with 150 μL/well TBST buffer and 25 μL/well primary detection antibody (rabbit Anti-IRAK4 antibody [Y279], from Abcam. Catalog number ab32511, […]). The assay plates were then incubated at room temperature for 1 hour, washed 3 times with 150 μL/well TBST buffer and 25 µL/well secondary detection antibody, SULFO-TAG anti-rabbit antibody were added (anti rabbit antibody from Meso Scale Discovery, Catalog number R32AB-1, 1 μg/mL). The assay plates were then incubated at room temperature for 1 hour, washed 3 times with 150 μL/well TB ST buffer, and 150 μL/well MSD reading buffer (Meso Scale Discovery catalog number R92TC-2) was added. The plates were then analyzed by a MSD reader (Meso Scale Discovery, Model Quick Plex SQ 120). The data was then analyzed by software Prism 7.0 from GraphPad and the dose-depended IRAK4 degradation were fit using a three-parameter logistic equation to calculate DC50.

[1] = OCI-LY10, 4 hrs, MSD, read-out: IRAK4 MSD degradation in OCI-LY10 at 4 hrs: Average external-Abs DC50
[2] = OCI-LY10, 24 hrs, MSD, read-out: IRAK4 MSD degradation in OCI-LY10 at 24 hrs: Average external-Abs DC50

Chain of IRAK4 (Q9NWZ3 whole entry): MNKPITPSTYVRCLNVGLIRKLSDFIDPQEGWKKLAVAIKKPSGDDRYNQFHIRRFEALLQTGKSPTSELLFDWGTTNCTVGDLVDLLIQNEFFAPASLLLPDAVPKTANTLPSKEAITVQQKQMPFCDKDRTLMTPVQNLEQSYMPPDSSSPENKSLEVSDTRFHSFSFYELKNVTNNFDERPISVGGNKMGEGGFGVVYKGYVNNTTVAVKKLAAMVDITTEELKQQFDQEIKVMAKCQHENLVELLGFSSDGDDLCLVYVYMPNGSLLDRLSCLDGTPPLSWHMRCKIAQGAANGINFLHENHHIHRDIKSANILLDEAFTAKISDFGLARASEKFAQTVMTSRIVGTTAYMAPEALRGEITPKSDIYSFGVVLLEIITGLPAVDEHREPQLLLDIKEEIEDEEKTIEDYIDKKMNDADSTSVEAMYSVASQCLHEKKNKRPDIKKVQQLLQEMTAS

Compound | DC50 [1] | other results
CN(CCCOCCCc1cccc2c1n(C)c(=O)n2C1CCC(=O)NC1=O)C[C@H]1CC[C@H](n2cc(NC(=O)c3cccc(C(F)(F)F)n3)c(C(C)(C)O)n2)CC1 (stereo partly drawn) [I-71] | 100 to 1000 nM | 
CN(CCCCc1cccc2c1n(C)c(=O)n2C1CCC(=O)NC1=O)C[C@H]1CC[C@H](n2cc(NC(=O)c3coc(-c4ccnc(NCC5CC5)c4)n3)c(C(F)F)n2)CC1 (stereo partly drawn) [I-66] | < 10 nM | 
CN(C[C@@H]1CN(Cc2cccc3c2n(C)c(=O)n3C2CCC(=O)NC2=O)CCO1)C[C@H]1CC[C@H](n2cc(NC(=O)c3coc(-c4ccnc(NCC5CC5)c4)n3)c(C(F)F)n2)CC1 (stereo partly drawn) [I-78] | 10 to 100 nM | 
Cn1c(=O)n(C2CCC(=O)NC2=O)c2cccc(CCCOCCCN(C[C@H]3CC[C@H](n4cc(NC(=O)c5coc(-c6ccnc(NCC7CC7)c6)n5)c(C(F)F)n4)CC3)C3CC3)c21 (stereo partly drawn) [I-64] | 100 to 1000 nM | 
CN(CC1CCN(CCC#Cc2ccc3c(c2)n(C)c(=O)n3C2CCC(=O)NC2=O)CC1)C[C@H]1CC[C@H](n2cc(NC(=O)c3coc(-c4ccnc(NCC5CC5)c4)n3)c(C(F)F)n2)CC1 (stereo partly drawn) [I-57] | < 10 nM | 
CN(CCCOCCCc1ccc2c(c1)oc(=O)n2C1CCC(=O)NC1=O)C[C@H]1CC[C@H](n2cc(NC(=O)c3coc(-c4ccnc(NCC5CC5)c4)n3)c(C(F)F)n2)CC1 (stereo partly drawn) [I-87] | < 10 nM | 
Cn1c(=O)n(C2CCC(=O)NC2=O)c2cccc(CCCOC3CCN(C[C@H]4CC[C@H](n5cc(NC(=O)c6cnn7cccnc67)c(C(F)F)n5)CC4)CC3)c21 (stereo partly drawn) [I-251] | 100 to 1000 nM | 
Cn1c(=O)n(C2CCC(=O)NC2=O)c2ccc(CN3CCC(CCC(=O)N4CCC(n5cc(NC(=O)c6coc(-c7ccnc(NCC8CC8)c7)n6)c(C(F)F)n5)CC4)CC3)cc21 (stereo not drawn) [I-255] | 10 to 100 nM | DC50 [2]: < 10 nM
CN(CCOCCNCc1ccc2c(c1)n(C)c(=O)n2C1CCC(=O)NC1=O)C(=O)[C@H]1CC[C@H](n2cc(NC(=O)c3coc(-c4ccnc(NCC5CC5)c4)n3)c(C(F)F)n2)CC1 (stereo partly drawn) [I-55] | < 10 nM | 
Cn1c(=O)n(C2CCC(=O)NC2=O)c2cccc(CCCOCCOCCOCCOCC(=O)N3CCN([C@H]4CC[C@H](Nc5ncnn6ccc(C7CCOCC7)c56)CC4)CC3)c21 (stereo partly drawn) [I-19] | > 1000 nM | DC50 [2]: > 1000 nM
CN(C[C@H]1CN(Cc2cccc3c2n(C)c(=O)n3C2CCC(=O)NC2=O)CCO1)C[C@H]1CC[C@H](n2cc(NC(=O)c3coc(-c4ccnc(NCC5CC5)c4)n3)c(C(F)F)n2)CC1 (stereo partly drawn) [I-77] | 10 to 100 nM | 
Cn1c(=O)n(C2CCC(=O)NC2=O)c2cccc(CCCO[C@H]3CCN(C[C@H]4CC[C@H](n5cc(NC(=O)c6coc(-c7ccnc(NCC8CC8)c7)n6)c(C(F)F)n5)CC4)C3)c21 (stereo partly drawn) [I-72] | 10 to 100 nM | 
CN(CCCOCCCc1cccc2c1n(C)c(=O)n2C1CCC(=O)NC1=O)C[C@H]1CC[C@H](n2cc(NC(=O)c3coc(-c4ccncc4)n3)c(C(F)F)n2)CC1 (stereo partly drawn) [I-69] | 100 to 1000 nM | 
Cn1c(=O)n(C2CCC(=O)NC2=O)c2cccc(CCCO[C@@H]3CCN(C[C@H]4CC[C@H](n5cc(NC(=O)c6coc(-c7ccnc(NCC8CC8)c7)n6)c(C(F)F)n5)CC4)C3)c21 (stereo partly drawn) [I-73] | < 10 nM | 
CN1CCN(c2ccn3ncc(C(=O)Nc4cn([C@H]5CC[C@H](CN6CCC(OCCCc7cccc8c7n(C)c(=O)n8C7CCC(=O)NC7=O)CC6)CC5)nc4C(F)F)c3c2)CC1 (stereo partly drawn) [I-258] | 10 to 100 nM | DC50 [2]: 10 to 100 nM
Cn1c(=O)n(C2CCC(=O)NC2=O)c2cccc(CN3CCC(CCN4CCC(n5cc(NC(=O)c6coc(-c7ccnc(NCC8CC8)c7)n6)c(C(F)F)n5)CC4)CC3)c21 (stereo not drawn) [I-264] | < 10 nM | DC50 [2]: < 10 nM
CC(C)N(CCCOCCCc1cccc2c1n(C)c(=O)n2C1CCC(=O)NC1=O)C[C@H]1CC[C@H](n2cc(NC(=O)c3coc(-c4ccnc(NCC5CC5)c4)n3)c(C(F)F)n2)CC1 (stereo partly drawn) [I-63] | 10 to 100 nM | 
Cn1c(=O)n(C2CCC(=O)NC2=O)c2cccc(CCCOCCCCCN3CCC(n4cc(NC(=O)c5coc(-c6ccnc(NCC7CC7)c6)n5)c(C(F)F)n4)CC3)c21 (stereo not drawn) [I-262] | < 10 nM | DC50 [2]: < 10 nM
Cn1c(=O)n(C2CCC(=O)NC2=O)c2ccc(CCCOCCCCCN3CCC(n4cc(NC(=O)c5coc(-c6ccnc(NCC7CC7)c6)n5)c(C(F)F)n4)CC3)cc21 (stereo not drawn) [I-261] | < 10 nM | DC50 [2]: < 10 nM

Compound | DC50 [1] | other results
Cn1c(=O)n(C2CCC(=O)NC2=O)c2ccc(CN3CCC(CCO[C@H]4C[C@H](N(C)C[C@H]5CC[C@H](n6cc(NC(=O)c7coc(-c8ccnc(NCC9CC9)c8)n7)c(C(F)F)n6)CC5)C4)CC3)cc21 (stereo partly drawn) [I-238] | 10 to 100 nM | 
Cn1c(=O)n(C2CCC(=O)NC2=O)c2ccc(CCCN3CCO[C@@H](CNC[C@H]4CC[C@H](n5cc(NC(=O)c6coc(-c7ccnc(NCC(F)(F)F)c7)n6)c(C(C)(C)O)n5)CC4)C3)cc21 (stereo partly drawn) [I-60] | 10 to 100 nM | 
CN(CC[C@@H]1CN(CCCc2ccc3c(c2)n(C)c(=O)n3C2CCC(=O)NC2=O)CCO1)C[C@H]1CC[C@H](n2cc(NC(=O)c3coc(-c4ccnc(NCC5CC5)c4)n3)c(C(F)F)n2)CC1 (stereo partly drawn) [I-97] | < 10 nM | 
CN(CC[C@H]1CN(CCCc2ccc3c(c2)n(C)c(=O)n3C2CCC(=O)NC2=O)CCO1)C[C@H]1CC[C@H](n2cc(NC(=O)c3coc(-c4ccnc(NCC5CC5)c4)n3)c(C(F)F)n2)CC1 (stereo partly drawn) [I-96] | 10 to 100 nM | 
O=C1CCC(n2c3ccc(CCCN4CC5(CCN(C(=O)[C@H]6CC[C@H](n7cc(NC(=O)c8cnn9ccc(N%10C[C@H]%11C[C@@H]%10CO%11)nc89)c(C(F)F)n7)CC6)CC5)C4)cc3c3cccnc32)C(=O)N1 (stereo partly drawn) [I-388] | 10 to 100 nM | 
Cn1c(=O)n(C2CCC(=O)NC2=O)c2cccc(CN3CCC(OCC4CCN(C[C@H]5CC[C@H](n6cc(NC(=O)c7coc(-c8ccnc(NCC9CC9)c8)n7)c(C(F)F)n6)CC5)CC4)CC3)c21 (stereo partly drawn) [I-248] | < 10 nM | 
O=C1CCC(N2C(=O)c3ccc(NCC4CC5(CCN(C[C@H]6CC[C@H](n7cc(NC(=O)c8cnn9ccc(N%10C[C@H]%11C[C@@H]%10CO%11)nc89)c(C(F)F)n7)CC6)CC5)C4)cc3C2=O)C(=O)N1 (stereo partly drawn) [I-556] |  | DC50 (OCI-LY10, 4 hrs, read-out: IRAK4 MSD degradation in OCI-LY10 at 4 hrs: DC50): 10 to 100 nM; DC50 (OCI-LY10, 24 hrs, read-out: IRAK4 MSD degradation in OCI-LY10 at 24 hrs: DC50): < 10 nM
O=C1CCC(n2c3cccc(CCCOCCOCCNC[C@H]4CC[C@H](n5cc(NC(=O)c6coc(-c7ccnc(NCC8CC8)c7)n6)c(C(F)F)n5)CC4)c3c3cccnc32)C(=O)N1 (stereo partly drawn) [I-93] | 10 to 100 nM | 
CN(CCOCC1CCN(c2ccc3c(c2)n(C)c(=O)n3C2CCC(=O)NC2=O)CC1)C[C@H]1CC[C@H](n2cc(NC(=O)c3coc(-c4ccnc(NCC5CC5)c4)n3)c(C(F)F)n2)CC1 (stereo partly drawn) [I-56] | 100 to 1000 nM | 
Cn1c(=O)n(C2CCC(=O)NC2=O)c2cccc(CN3CCC(CCCN4CCC(n5cc(NC(=O)c6coc(-c7ccnc(NCC8CC8)c7)n6)c(C(F)F)n5)CC4)CC3)c21 (stereo not drawn) [I-253] | 10 to 100 nM | 
CN(CCC1CCN(Cc2cccc3c2n(C)c(=O)n3C2CCC(=O)NC2=O)CC1)C[C@H]1CC[C@H](n2cc(NC(=O)c3coc(-c4ccnc(NCC5CC5)c4)n3)c(C(F)F)n2)CC1 (stereo partly drawn) [I-79] | 10 to 100 nM | 
CN(CCCOCC#Cc1cccc2c1n(C)c(=O)n2C1CCC(=O)NC1=O)C[C@H]1CC[C@H](n2cc(NC(=O)c3coc(-c4ccnc(NCC5CC5)c4)n3)c(C(F)F)n2)CC1 (stereo partly drawn) [I-88] | 100 to 1000 nM | 
CN(CCOC(=O)NCc1ccc2c(c1)n(C)c(=O)n2C1CCC(=O)NC1=O)C[C@H]1CC[C@H](n2cc(NC(=O)c3coc(-c4ccnc(NCC5CC5)c4)n3)c(C(F)F)n2)CC1 (stereo partly drawn) [I-91] | 100 to 1000 nM | 
CN(CCCOCCCc1ccc2c(c1)n(C)c(=O)n2C1CCC(=O)NC1=O)C[C@H]1CC[C@H](n2cc(NC(=O)c3coc(-c4ccnc(NCC5CC5)c4)n3)c(C(C)(C)O)n2)CC1 (stereo partly drawn) [I-83] | 100 to 1000 nM | 
CN(CCOCCCc1cccc2c1N(C)C(=O)C2C1CCC(=O)NC1=O)CC[C@H]1CC[C@H](n2cc(NC(=O)c3coc(-c4ccnc(NCC5CC5)c4)n3)c(C(F)F)n2)CC1 (stereo partly drawn) [I-154] | 10 to 100 nM | DC50 [2]: 10 to 100 nM
CNc1cc(-c2nc(C(=O)Nc3cn([C@H]4CC[C@H](CN(C)CCCOCCCc5cccc6c5n(C)c(=O)n6C5CCC(=O)NC5=O)CC4)nc3C(F)F)co2)ccn1 (stereo partly drawn) [I-68] | 10 to 100 nM | 
Cn1c(=O)n(C2CCC(=O)NC2=O)c2cccc(CN3CCC(OC4CCN(C[C@H]5CC[C@H](n6cc(NC(=O)c7coc(-c8ccnc(NCC9CC9)c8)n7)c(C(F)F)n6)CC5)CC4)CC3)c21 (stereo partly drawn) [I-256] | < 10 nM | 
Cn1c(=O)n(C2CCC(=O)NC2=O)c2cccc(CN3CCC(CC4CCN(C[C@H]5CC[C@H](n6cc(NC(=O)c7coc(-c8ccnc(NCC9CC9)c8)n7)c(C(F)F)n6)CC5)CC4)CC3)c21 (stereo partly drawn) [I-74] | < 10 nM | 
